Assay results as given in ChEMBL document CHEMBL5620362 (Eur J Med Chem, 2023).
Activity calls are given as the source filed them. The rule behind the calls is not given here.

Key:
[1] = target: T1, Nuclear receptor ROR-gamma (Homo sapiens) (UniProt P51449); experiment: Binding affinity to ROR-gamma LBD (265 to 507 residues)(unknown origin) assessed as increase in thermal stability by measuring change in melting temperature at 100 uM incubated for 2 hrs followed by heating at 20 to 90 degreeC by NanoDSF assay (reference value: 46.0 degreeC); details: filed as antagonist
T1 sequence (whole entry): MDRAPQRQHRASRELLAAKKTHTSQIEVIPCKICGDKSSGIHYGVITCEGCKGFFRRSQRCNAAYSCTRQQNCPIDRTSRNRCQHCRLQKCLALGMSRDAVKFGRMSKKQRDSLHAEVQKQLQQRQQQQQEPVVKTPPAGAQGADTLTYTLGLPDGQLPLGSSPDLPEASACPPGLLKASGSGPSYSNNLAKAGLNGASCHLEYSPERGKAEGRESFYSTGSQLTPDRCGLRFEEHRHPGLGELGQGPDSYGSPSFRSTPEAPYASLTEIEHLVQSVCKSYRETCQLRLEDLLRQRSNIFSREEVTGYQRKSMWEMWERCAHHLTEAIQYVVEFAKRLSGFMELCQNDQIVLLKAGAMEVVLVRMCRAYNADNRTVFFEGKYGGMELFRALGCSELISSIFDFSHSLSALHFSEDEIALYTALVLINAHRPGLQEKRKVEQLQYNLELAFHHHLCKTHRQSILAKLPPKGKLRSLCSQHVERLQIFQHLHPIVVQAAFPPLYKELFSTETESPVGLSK

[2] = target: T1, Nuclear receptor ROR-gamma (Homo sapiens); experiment: Binding affinity to ROR-gamma LBD (265 to 507 residues)(unknown origin) assessed as increase in thermal stability by measuring melting temperature at 100 uM incubated for 2 hrs followed by heating at 20 to 90 degreeC by NanoDSF assay (reference value: 46.0 degreeC); details: filed as antagonist
[3] = target: T1, Nuclear receptor ROR-gamma (Homo sapiens); experiment: Binding affinity to ROR-gamma LBD (unknown origin) assessed as protein stabilization by measuring reduction in hydrolysis rate incubated for 10 mins by SDS-PAGE analysis; details: filed as antagonist, dose <= 100.0 µM
[4] = target: T2, Nuclear receptor ROR-gamma (Homo sapiens, UniProt P51449); experiment: Antagonist activity at ROR-gamma LBD (unknown origin) using biotinylated SRC1-2 as substrate preincubated for 60 mins followed by substrate addition measured after 30 mins by HTRF assay
T2 sequence (P51449 whole entry): T1 sequence (whole entry)

[5] = target: T2, Nuclear receptor ROR-gamma; experiment: Binding affinity to ROR-gamma LBD (unknown origin) assessed as dissociation constant by ITC analysis
[6] = target: T2, Nuclear receptor ROR-gamma; experiment: Binding affinity to CM5 chip-immobilized recombinant ROR-gamma LBD (unknown origin) assessed as dissociation constant by SPR analysis
HPAF-II [7] = experiment: Antitumor activity against human HPAF-II cells measured after 72 hrs; format: functional, cell-based
HPAF-II [8] = experiment: Downregulation of retinol metabolism-related gene expression in human HPAF-II cells at 20 uM incubated for 24 hrs by KEGG analysis; format: functional, cell-based
HPAF-II [9] = experiment: Downregulation of drug metabolism-related gene expression in human HPAF-II cells at 20 uM incubated for 24 hrs by KEGG analysis; format: functional, cell-based
HPAF-II [10] = experiment: Downregulation of chemical carcinogenesis-related gene expression in human HPAF-II cells at 20 uM incubated for 24 hrs by KEGG analysis; format: functional, cell-based
HPAF-II [11] = experiment: Downregulation of cancer-related gene expression in human HPAF-II cells at 20 uM incubated for 24 hrs by KEGG analysis; format: functional, cell-based
HPAF-II [12] = experiment: Downregulation of retinol metabolism-related gene expression in human HPAF-II cells at 20 uM incubated for 24 hrs by GO analysis; format: functional, cell-based
HPAF-II [13] = experiment: Downregulation of lipid metabolism-related gene expression in human HPAF-II cells at 20 uM incubated for 24 hrs by GO analysis; format: functional, cell-based
HPAF-II [14] = experiment: Downregulation of cancer-related gene expression in human HPAF-II cells at 20 uM incubated for 24 hrs by GO analysis; format: functional, cell-based
HPAF-II [15] = experiment: Inhibition of MAPK signalling pathway in human HPAF-II cells at 20 uM incubated for 24 hrs by KEGG analysis; format: functional, cell-based
HPAF-II [16] = experiment: Inhibition of RAS signalling pathway in human HPAF-II cells at 20 uM incubated for 24 hrs by KEGG analysis; format: functional, cell-based
HPAF-II [17] = experiment: Effect on mTORC1 signalling pathway in human HPAF-II cells at 20 uM incubated for 24 hrs by KEGG analysis; format: functional, cell-based
HPAF-II [18] = experiment: Downregulation of phosphorylated MEK expression in human HPAF-II cells at 20 uM incubated for 48 hrs by Western blot analysis; format: functional, cell-based
HPAF-II [19] = experiment: Downregulation of phosphorylated ERK expression in human HPAF-II cells at 20 uM incubated for 48 hrs by Western blot analysis; format: functional, cell-based
HPAF-II [20] = experiment: Downregulation of phosphorylated AKT expression in human HPAF-II cells at 20 uM incubated for 48 hrs by Western blot analysis; format: functional, cell-based

Question: C=C(C)[C@@H]1CC[C@]2(C(=O)O)CC[C@]3(C)[C@H](CC[C@@H]4[C@@]5(C)CC[C@H](O)C(C)(C)[C@@H]5CC[C@]43C)[C@@H]12 [BETULINIC ACID] was tested. Which ΔTm [1] did it give?
Answer: The ΔTm was 14.1 °C.

Question: And the Tm [2]?
Answer: Its Tm is 60.2 °C.

Question: What about the Activity [3] of the same compound?
Answer: The Activity was “Dose-Dependent Effect”.

Question: What about the IC50 [4] of the same compound?
Answer: Its IC50 is 2.2 µM.

Question: What about the Kd [5] of the same compound?
Answer: Its Kd is 3.39 µM.

Question: And the Kd [6]?
Answer: The Kd was 2.7 µM.

Question: What about the IC50 (HPAF-II [7]) of the same compound?
Answer: Its IC50 is 12.5 µM.

Question: What about the Activity (HPAF-II [8]) of the same compound?
Answer: The Activity was “Active”.

Question: And the Activity (HPAF-II [9])?
Answer: The Activity was “Active”.

Question: What about the Activity (HPAF-II [10]) of the same compound?
Answer: The Activity was “Active”.

Question: What about the Activity (HPAF-II [11]) of the same compound?
Answer: Its Activity is “Active”.

Question: And the Activity (HPAF-II [12])?
Answer: Its Activity is “Active”.

Question: What about the Activity (HPAF-II [13]) of the same compound?
Answer: Its Activity is “Active”.

Question: What about the Activity (HPAF-II [14]) of the same compound?
Answer: The Activity was “Active”.

Question: And the inhibition (HPAF-II [15])?
Answer: The inhibition was “Active”.

Question: And the inhibition (HPAF-II [16])?
Answer: The inhibition was “Active”.

Question: What about the Activity (HPAF-II [17]) of the same compound?
Answer: The Activity was “Active”.

Question: What about the Activity (HPAF-II [18]) of the same compound?
Answer: The Activity was “Active”.

Question: What about the Activity (HPAF-II [19]) of the same compound?
Answer: The Activity was “Active”.

Question: What about the Activity (HPAF-II [20]) of the same compound?
Answer: The Activity was “Active”.
